Measurements taken from ChEMBL document CHEMBL5050827, “ATF6 inhibitors and uses thereof” (2020).

Key:
[1] = Inhibition of ATF6 activity in human U2OS cells in presence of ER stress inducer thapsigargin (Tg) measured by TRE-luciferase reporter assay; type: cell-based
U2OS = experiment: Inhibition of ATF6 activity in human U2OS cells at 1 uM in presence of ER stress inducer thapsigargin (Tg) measured by TRE-luciferase reporter assay relative to control; type: cell-based
[2] = Clearance in Balb/C mouse plasma at 10 mg/kg, po by LC-MS analysis; type: ADME, organism-based
[3] = AUC (last) in Balb/C mouse plasma at 10 mg/kg, po by LC-MS analysis; type: ADME, organism-based; set-up: time 0 - last, route oral, dose 10 mg/kg
[4] = AUC (infinity) in Balb/C mouse plasma at 10 mg/kg, po by LC-MS analysis; type: ADME, organism-based; set-up: route oral, time infinity, dose 10 mg/kg
[5] = Half-life in Balb/C mouse plasma at 10 mg/kg, po by LC-MS analysis; type: ADME, organism-based

| SMILES | IC50 [1] | inhibition (U2OS) [%] | other results |
| --- | --- | --- | --- |
| C[C@@H](c1ccc(C(F)(F)F)cc1C(F)(F)F)n1cc(NC(=O)c2coc(-c3ccccn3)n2)cn1 | > 10000 nM | < 25 | – |
| O=C(Nc1cnn(Cc2ccc(C(F)(F)F)cc2C(F)(F)F)c1)c1cc(-c2ccncc2)on1 | in the range around 1000 nM | – | – |
| C[C@H](c1ccc(C(F)(F)F)cc1C(F)(F)F)n1cc(NC(=O)c2nnc(-c3ccncn3)s2)cn1 | – | 25 | – |
| C[C@H](c1ccc(C(F)(F)F)cc1C(F)(F)F)n1cc(NC(=O)c2cnc(-c3ccccn3)s2)cn1 | in the range around 1000 nM | 25 | – |
| C[C@@H](c1ccc(C(F)(F)F)cc1C(F)(F)F)n1cc(NC(=O)c2cc(-c3ccco3)on2)cn1 | – | – | CL/F [2]: 267 mL/min/kg |
| C[C@H](c1ccc(C(F)(F)F)cc1C(F)(F)F)n1cc(NC(=O)c2cc(-c3ccccn3)no2)cn1 | – | – | CL/F [2]: 3.68 mL/min/kg |
| C[C@H](c1ccc(C(F)(F)F)cc1C(F)(F)F)n1cc(NC(=O)c2cc(-c3ccco3)on2)cn1 | – | < 25 | – |
| O=C(Nc1cnn(Cc2ccc(C(F)(F)F)cc2)c1)c1cc(-c2ccco2)on1 | > 10000 nM | < 25 | – |
| O=C(Nc1cnn(Cc2ccc(C(F)(F)F)cc2C(F)(F)F)c1)c1cc(-c2ccccn2)on1 | – | – | CL/F [2]: 16.2 mL/min/kg |
| Cc1nn([C@H](C)c2ccc(C(F)(F)F)cc2C(F)(F)F)cc1NC(=O)c1cc(-c2ccccn2)on1 | – | 25 | – |
| C[C@H](c1ccc(C(F)(F)F)cc1C(F)(F)F)n1cc(NC(=O)c2nnc(-c3ccccn3)s2)cn1 | – | – | CL/F [2]: 2.68 mL/min/kg |
| C[C@H](c1ccc(C(F)(F)F)cc1C(F)(F)F)n1cc(NC(=O)c2cc(-c3ccccn3)on2)cn1 | – | < 25 | – |
| O=C(Nc1cnn(Cc2ccc(C(F)(F)F)cc2C(F)(F)F)c1)c1cc(-c2cccs2)on1 | – | 25 | – |
| C[C@@H](c1ccc(C(F)(F)F)cc1C(F)(F)F)n1cc(NC(=O)c2nnc(-c3ccco3)s2)cn1 | – | 25 | – |
| C[C@H](c1ccc(C(F)(F)F)cc1C(F)(F)F)n1cc(NC(=O)c2cc(-c3cnccn3)on2)cn1 | – | – | CL/F [2]: 1.56 mL/min/kg |
| C[C@@H](c1ccc(C(F)(F)F)cc1C(F)(F)F)n1cc(NC(=O)c2cc(-c3ccccn3)on2)cn1 | – | > 50 | CL/F [2]: 5.17 mL/min/kg |
| Cc1cccc(-c2cc(C(=O)Nc3cnn([C@H](C)c4ccc(C(F)(F)F)cc4C(F)(F)F)c3)no2)n1 | – | 25 | – |
| O=C(Nc1cnn(C2CCc3ccccc32)c1)c1nnc(-c2ccco2)o1 (stereo not given) | > 10000 nM | < 25 | – |
| C[C@H](c1ccc(C(F)(F)F)cc1C(F)(F)F)n1cc(NC(=O)c2cn(-c3ccccn3)nn2)cn1 | – | 25 | – |
| Cc1cccc(-c2cc(C(=O)Nc3cnn(Cc4ccc(C(F)(F)F)cc4C(F)(F)F)c3)no2)n1 | – | 25 | – |
| CC(c1ccc(C(F)(F)F)cc1C(F)(F)F)n1cc(NC(=O)c2cc(-c3ccccn3)nn2C)cn1 (stereo not given) | – | 25 | – |

Continued, in another order:

| IC50 [1] | SMILES | inhibition (U2OS) [%] | other results |
| --- | --- | --- | --- |
| in the range around 1000 nM | O=C(Nc1cnn(Cc2ccc(C(F)(F)F)cc2C(F)(F)F)c1)c1cnc(-c2ccccn2)s1 | – | – |
| in the range around 1000 nM | Cc1c(NC(=O)c2cc(-c3ccccn3)on2)cnn1[C@H](C)c1ccc(C(F)(F)F)cc1C(F)(F)F | 25 | – |
| in the range around 1000 nM | C[C@@H](c1ccc(C(F)(F)F)cc1C(F)(F)F)n1cc(NC(=O)c2nnc(-c3ccccn3)s2)cn1 | < 25 | – |
| in the range around 1000 nM | CN(C(=O)c1cc(-c2ccccn2)on1)c1cnn(Cc2ccc(C(F)(F)F)cc2C(F)(F)F)c1 | 25 | – |
| in the range around 1000 nM | Cc1ccc(-c2cc(C(=O)Nc3cnn(Cc4ccc(C(F)(F)F)cc4C(F)(F)F)c3)no2)o1 | – | – |
| in the range around 1000 nM | C[C@H](c1ccc(F)cc1C(F)(F)F)n1cc(NC(=O)c2cc(-c3ccccn3)on2)cn1 | 25 | – |
| > 10000 nM | O=C(Nc1cnn(Cc2ccccc2)c1)c1cc(-c2ccco2)on1 | < 25 | – |
| in the range around 1000 nM | CC(c1ccc(C(F)(F)F)cc1C(F)(F)F)n1cc(NC(=O)c2cnc(-c3ccccn3)s2)cn1 (stereo not given) | – | – |
| < 1000 nM | O=C(Nc1cnn(Cc2ccc(C(F)(F)F)cc2C(F)(F)F)c1)c1cc(-c2ccco2)on1 | > 50 | AUC(0-t) [3]: 39.1 ng·h/mL; AUC(0-inf) [4]: 43.3 ng·h/mL; CL/F [2]: 3850 mL/min/kg; half-life [5]: 2.49 h |
| > 10000 nM | C[C@@H](c1ccc(C(F)(F)F)cc1C(F)(F)F)n1cc(NC(=O)c2cnc(-c3ccccn3)o2)cn1 | < 25 | – |
| in the range around 1000 nM | Cc1c(NC(=O)c2cc(-c3ccccn3)on2)cnn1Cc1ccc(C(F)(F)F)cc1C(F)(F)F | 25 | – |
| in the range around 1000 nM | CC(c1ccc(C(F)(F)F)cc1C(F)(F)F)n1cc(NC(=O)c2cc(-c3cccs3)on2)cn1 (stereo not given) | – | – |
